{"source": "PubChem BioAssay AID1083212", "about": "(The Scripps Research Institute Molecular Screening Center, 2014)", "note": "Activity calls are given as the source filed them.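 How the source made its calls: active means IC50 of 10 µM or lower; inactive means IC50 above 10 µM.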", "data": [{"target": "Tyrosyl-DNA phosphodiesterase 2 (Homo sapiens) (UniProt O95551)", "sequence (O95551 whole entry, looked up)": "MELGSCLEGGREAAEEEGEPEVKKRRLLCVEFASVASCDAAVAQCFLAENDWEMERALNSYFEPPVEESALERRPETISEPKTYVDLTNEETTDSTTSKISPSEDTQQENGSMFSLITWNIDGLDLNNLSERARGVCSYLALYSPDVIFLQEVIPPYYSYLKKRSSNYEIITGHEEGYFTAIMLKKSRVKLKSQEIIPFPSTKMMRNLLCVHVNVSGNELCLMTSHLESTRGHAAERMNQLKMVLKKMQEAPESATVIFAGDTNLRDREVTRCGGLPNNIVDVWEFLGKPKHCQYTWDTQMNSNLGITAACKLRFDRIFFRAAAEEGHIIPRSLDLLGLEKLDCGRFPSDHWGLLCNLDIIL", "assay": "human TDP2 enzyme inhibitors, late-stage follow-up, biochemical, epi absorbance, IC50 (AID 1083212)", "details": "recombinant TDP2, T5PNP hydrolysis, p-nitrophenol absorbance 415 nm", "values": [{"smiles": "COc1ccc(CNC(=S)Nc2ccc(S(N)(=O)=O)cc2)cc1", "IC50": "> 128 µM (inactive)"}, {"smiles": "O=C(O)c1ccc(NC2=C/C(=N/S(=O)(=O)c3cccs3)c3ccccc3C2=O)cc1", "IC50": "1.32 µM"}, {"smiles": "Cc1ccc(NC2=C/C(=N\\S(=O)(=O)c3cccs3)c3ccccc3C2=O)cc1", "IC50": "> 128 µM (inactive)"}]}]}
